# In US7282507B2, “Indole derivatives as selective androgen receptor modulators (SARMS)” (Janssen Pharmaceutica N.V., priority 2004, dated 2007):
# “And” between values parts separate entries of the source, which are not always exact repeats. Equal values may be shown once.
# Columns and labels:
# [1] = biological target: T1, androgen receptor (AdEasy+rAR, L929 cells) (Rattus norvegicus, UniProt P15207); assay: L929 Androgen Receptor Functional Assay, Adenovirus Transduction; format: cell-based; settings: for EC50 / % Activity, L929 androgen receptor functional assay: agonist testing; for IC50: antagonist testing with R1881; for inhibition at 3 µM: L929, antagonist testing with R1881, 3000 nM; for % Inhibition, L929 androgen receptor functional assay: antagonist testing with R1881, 3000 nM
# T1 construct: expressed in transfected cells; host or cells: L929 cells transduced with adenovirus AdEasy+rAR
# T1 sequence (P15207 1-902): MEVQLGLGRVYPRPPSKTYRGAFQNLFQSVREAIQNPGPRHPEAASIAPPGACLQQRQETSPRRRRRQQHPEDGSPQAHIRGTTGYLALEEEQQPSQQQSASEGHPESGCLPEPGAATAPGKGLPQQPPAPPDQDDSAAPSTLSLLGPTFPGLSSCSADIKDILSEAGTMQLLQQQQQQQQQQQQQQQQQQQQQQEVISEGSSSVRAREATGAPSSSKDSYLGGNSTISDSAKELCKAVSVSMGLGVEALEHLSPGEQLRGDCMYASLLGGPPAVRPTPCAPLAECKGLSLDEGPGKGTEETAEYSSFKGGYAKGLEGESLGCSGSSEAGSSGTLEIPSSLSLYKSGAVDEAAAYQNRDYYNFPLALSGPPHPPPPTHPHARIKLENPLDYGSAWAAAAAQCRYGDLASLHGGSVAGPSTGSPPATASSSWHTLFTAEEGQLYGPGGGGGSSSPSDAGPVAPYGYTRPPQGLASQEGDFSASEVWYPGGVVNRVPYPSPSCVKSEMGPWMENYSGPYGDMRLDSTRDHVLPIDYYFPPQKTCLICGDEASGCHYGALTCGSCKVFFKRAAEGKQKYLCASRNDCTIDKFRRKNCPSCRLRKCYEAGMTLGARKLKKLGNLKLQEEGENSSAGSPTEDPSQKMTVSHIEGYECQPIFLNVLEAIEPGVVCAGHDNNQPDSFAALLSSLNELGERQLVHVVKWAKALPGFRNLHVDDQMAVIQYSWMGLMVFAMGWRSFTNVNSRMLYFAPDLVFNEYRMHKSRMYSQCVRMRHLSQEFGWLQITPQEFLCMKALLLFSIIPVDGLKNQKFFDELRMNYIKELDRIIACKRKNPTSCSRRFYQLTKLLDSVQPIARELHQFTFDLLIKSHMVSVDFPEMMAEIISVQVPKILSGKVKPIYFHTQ
# In short: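 L929 cells in phenol red-free, charcoal-stripped serum medium transduced with AdEasy+rAR (moi 1:500) and exposed 48 h at 37 °C to compound alone (agonist mode) or with R1881 (antagonist mode; 2.5 nM as the 2.5× dilution).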
# [2] = biological target: T2, androgen receptor LBD (Panvera) (Rattus norvegicus, UniProt P15207); assay: Androgen Receptor Filtration Binding Assay (PANVERA); settings: [3H] R1881 tracer 0.5 nM; read-out: IC50 (nM), Androgen Receptor Binding (Panvera)
# T2 construct: 5 pmol androgen receptor LBD (Panvera); purchased Panvera
# T2 sequence (P15207 651-882 limits assumed): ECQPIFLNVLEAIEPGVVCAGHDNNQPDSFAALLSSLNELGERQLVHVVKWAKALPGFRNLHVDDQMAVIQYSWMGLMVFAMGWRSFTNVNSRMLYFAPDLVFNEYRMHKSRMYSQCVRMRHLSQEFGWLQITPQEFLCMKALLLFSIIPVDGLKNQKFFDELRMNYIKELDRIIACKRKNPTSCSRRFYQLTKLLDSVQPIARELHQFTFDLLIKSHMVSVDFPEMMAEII
Structure (SMILES),inhibition at 3 µM [1] [%],"% Activity, L929 androgen receptor functional assay ([1]; 3000 nM) [%]",other results
CCS(=O)(=O)CC(C)(O)c1cc2cc([N+](=O)[O-])c(C(F)(F)F)cc2[nH]1 (stereo not shown) [Compound 151],,,"EC50 [1]: > 8000 nM; % Activity, L929 androgen receptor functional assay ([1]; @ 8000 nM): −1 @ 8000 nM %; IC50 [1]: 533 nM"
"CCS(=O)(=O)C[C@](C)(O)c1cc2cc([N+](=O)[O-])c(C(F)(F)F)cc2[nH]1 [Compound 156, 1-Ethanesulfonyl-2-(5-nitro-6-trifluoromethyl-1H-indol-2-yl)-propan-2-ol]",35,2,"% Inhibition, L929 androgen receptor functional assay ([1]; 3 µM): 23%"
CCSCC(C)(O)c1cc2cc([N+](=O)[O-])c(C(F)(F)F)cc2n1C (racemic) [Compound 165],100,1,
CC(O)(CSc1ccc([N+](=O)[O-])cc1)c1cc2cc(Cl)c(C(F)(F)F)cc2[nH]1 (stereo not shown) [Compound 122],35,10,
"CCSCC(C)(O)c1cc2cc([N+](=O)[O-])c(C(F)(F)F)cc2[nH]1 (single isomer, unassigned) [Compound 150]",,,"EC50 [1]: > 8000 nM; % Activity, L929 androgen receptor functional assay ([1]; @ 8000 nM): 0 @ 8000 nM %; IC50 [1]: 303 nM"
CC(O)(CCS(C)(=O)=O)c1cc2cc([N+](=O)[O-])c(C(F)(F)F)cc2[nH]1 (stereo not shown) [Compound 49],8,2,
"CC[S+]([O-])C[C@](C)(O)c1cc2cc([N+](=O)[O-])c(C(F)(F)F)cc2[nH]1 (stereo in doubt) [Compound 155, 1-Ethanesulfinyl-2-(5-nitro-6-trifluoromethyl-1H-indol-2-yl)-propan-2-ol]",-2,2,
"CCSCC(C)(O)c1cc2cc([N+](=O)[O-])c(C(F)(F)F)cc2[nH]1 (single isomer, unassigned) [Compound 149]",77,2,
CCSCC(C)(O)c1cc2cc([N+](=O)[O-])c(C(F)(F)F)cc2n1S(C)(=O)=O (stereo not shown) [Compound 141],42,0,
CC(O)(CSC1CCCC1)c1cc2cc([N+](=O)[O-])c(C(F)(F)F)cc2[nH]1 (stereo not shown) [Compound 173],40,2,
COc1ccc(SCC(C)(O)c2cc3cc(Cl)c(C(F)(F)F)cc3[nH]2)cc1 (stereo not shown) [Compound 131],-4,−5,
CC(O)(CS(C)(=O)=O)c1cc2cc([N+](=O)[O-])c(C(F)(F)F)cc2[nH]1 (stereo not shown) [Compound 148],,0,"% Inhibition, L929 androgen receptor functional assay ([1]; 3 µM): 77%"
CC(O)(CSCc1ccccc1)c1cc2cc([N+](=O)[O-])c(C(F)(F)F)cc2[nH]1 (stereo not shown) [Compound 160],76,1,
COc1ccc(SCC(C)(O)c2cc3cc(Cl)c(C(F)(F)F)cc3n2S(C)(=O)=O)cc1 (racemic) [Compound 130],,−5,
CC(O)(CS(C)(=O)=O)c1cc2cc(Cl)c(C(F)(F)F)cc2[nH]1 (stereo not shown) [Compound 138],19,0,
CCSCC(O)c1cc2cc([N+](=O)[O-])c(C(F)(F)F)cc2[nH]1 (stereo not shown) [Compound 158],21,,"% Activity, L929 androgen receptor functional assay ([1]; 3000 nM, 3 µM): 3% and 2%; % Inhibition, L929 androgen receptor functional assay ([1]; 3 µM): 29%"
CC(O)(CSc1ccc(N)cc1)c1cc2cc(Cl)c(C(F)(F)F)cc2[nH]1 (stereo not shown) [Compound 104],18,9,IC50 [2]: 930 nM
CCCSCC(C)(O)c1cc2cc([N+](=O)[O-])c(C(F)(F)F)cc2[nH]1 (stereo not shown) [Compound 168],26,3,
CC(O)(CS(=O)(=O)c1ccc(N)cc1)c1cc2cc(Cl)c(C(F)(F)F)cc2[nH]1 (stereo not shown) [Compound 118],63,,"EC50 [1]: > 8000 nM; % Activity, L929 androgen receptor functional assay ([1]; @ 8000 nM): −2 @ 8000 nM %; IC50 [1]: 3070 nM"

Structure (SMILES),inhibition at 3 µM [1] [%],"% Activity, L929 androgen receptor functional assay ([1]; 3000 nM) [%]",other results
CC(O)(CSCC(F)(F)F)c1cc2cc([N+](=O)[O-])c(C(F)(F)F)cc2[nH]1 (stereo not shown) [Compound 171],,,"EC50 [1]: > 8000 nM; % Activity, L929 androgen receptor functional assay ([1]; 3000 nM, 3 µM): 11%; % Activity, L929 androgen receptor functional assay ([1]; @ 8000 nM): −1 @ 8000 nM %; IC50 [1]: 366 nM; % Inhibition, L929 androgen receptor functional assay ([1]; 3 µM): 101% and 70%"
CC(O)(CS(=O)(=O)c1ccc(O)cc1)c1cc2cc(Cl)c(C(F)(F)F)cc2[nH]1 (stereo not shown) [Compound 121],54,−4,
"CSCC(C)(O)c1cc2cc([N+](=O)[O-])c(C(F)(F)F)cc2[nH]1 (single isomer, unassigned) [Compound 144]",82,,"% Activity, L929 androgen receptor functional assay ([1]; 3000 nM, 3 µM): 0%"
CC(C)SCC(C)(O)c1cc2cc([N+](=O)[O-])c(C(F)(F)F)cc2[nH]1 (stereo not shown) [Compound 164],71,2,
"CSCC(C)(O)c1cc2cc([N+](=O)[O-])c(C(F)(F)F)cc2[nH]1 (single isomer, unassigned) [Compound 145]",,,"% Activity, L929 androgen receptor functional assay ([1]; 3000 nM, 3 µM): 1%; % Inhibition, L929 androgen receptor functional assay ([1]; 3 µM): 94%"
COc1ccc(S(=O)(=O)CC(C)(O)c2cc3cc(Cl)c(C(F)(F)F)cc3[nH]2)cc1 (racemic) [Compound 129],,−5,"% Inhibition, L929 androgen receptor functional assay [1]: −8%"
CC(O)(C[S+]([O-])Cc1ccccc1)c1cc2cc([N+](=O)[O-])c(C(F)(F)F)cc2[nH]1 (mixture of isomers) [Compound 161],,2,
CC(O)(CSc1ccc(O)cc1)c1cc2cc(Cl)c(C(F)(F)F)cc2[nH]1 (stereo not shown) [Compound 120],44,−5,
CC(O)(CS(C)(=O)=O)c1cc2cc([N+](=O)[O-])c(C(F)(F)F)cc2[nH]1 (stereo not shown) [Compound 147],,0,"% Inhibition, L929 androgen receptor functional assay ([1]; 3 µM): 43%"
CCC(O)(CS(=O)(=O)CC)c1cc2cc([N+](=O)[O-])c(C(F)(F)F)cc2[nH]1 (stereo not shown) [Compound 176],81,3,
CCS(=O)(=O)CC(C)(O)c1cc2cc([N+](=O)[O-])c(C(F)(F)F)cc2[nH]1 (stereo not shown) [Compound 143],67,0,
CCSCC(O)(CC)c1cc2cc([N+](=O)[O-])c(C(F)(F)F)cc2[nH]1 (stereo not shown) [Compound 169],98,2,
CSCC(C)(O)c1cc2cc(C#N)c(C(F)(F)F)cc2[nH]1 (stereo not shown) [Compound 136],75,0,
CC(C)CSCC(C)(O)c1cc2cc([N+](=O)[O-])c(C(F)(F)F)cc2[nH]1 (stereo not shown) [Compound 170],67,2,
CCSCC(C)(O)c1cc2cc([N+](=O)[O-])c(C(F)(F)F)cc2[nH]1 (racemic) [Compound 142],78,0,
CSCCC(C)(O)c1cc2cc([N+](=O)[O-])c(C(F)(F)F)cc2[nH]1 (stereo not shown) [Compound 47],75,2,
CSCC(C)(O)c1cc2cc(Cl)c(C(F)(F)F)cc2[nH]1 (stereo not shown) [Compound 135],40,0,
CC(O)(CS(C)(=O)=O)c1cc2cc([N+](=O)[O-])c(C(F)(F)F)cc2[nH]1 (stereo not shown) [Compound 140],,0,"% Inhibition, L929 androgen receptor functional assay ([1]; 3 µM): 78%"
